Measured values: article PMC7694092, “Antibacterial Cyclic Tripeptides from Antarctica-Sponge-Derived Fungus Aspergillus insulicola HDN151418” (Marine Drugs, 2020)
Converted amounts (≈) assume the structure as drawn. Like-named read-outs stand apart in the source and are kept apart here.

Legend:
[1] = in vitro; format: cell-based; conditions: human; HO8910 cells; read-out: cytotoxic activity IC50
Source text: (§2) HeLa (human epithelial carcinoma cell line), HCT-116 (human colon cancer cell line), MCF-7 (human breast adenocarcinoma cell line), A549 (human lung adenocarcinoma cell line), SH-SY5Y (human neuroblastoma cell line), MDA-MB-231 (human breast cancer cell line), HO8910 (human ovarian carcinoma cell line), and MGC-803 (human stomach carcinoma cell line) were ordered from Shanghai Institute of Biochemistry and Cell Biology, Chinese Academy of Sciences (Shanghai, China). K562 (human leukaemia cell line), BEL-7402 (human hepatic carcinoma cell line), L-02 (human normal hepatic cell line), GES-1 (human gastric epithelial cell line), U87 (human primary glioblastoma cell line), ASPC-1 (human pancreatic cancer cell line), PC-3 (human prostate carcinoma cell line), and NCI-H446 (human small cell lung cancer cell line) were ordered from the American Type Culture Collection (ATCC, Gaithersburg, MD, USA).

[2] = in vitro; format: cell-based; conditions: human; L-02 cells; read-out: cytotoxic activity IC50
Source text: as §2

[3] = in vitro; conditions: human, GES-1 cells (gastric epithelial cell line)
[4] = in vitro; format: cell-based; conditions: human; U87 cells; read-out: cytotoxic activity IC50
[5] = in vitro; format: cell-based; conditions: human; HCT-116 cells; read-out: cytotoxic activity IC50
Source text: as §2

[6] = in vitro; format: cell-based; conditions: human; NCI-H446 cells; read-out: cytotoxic activity IC50
Source text: as §2

[7] = in vitro; format: cell-based; conditions: human; Hela cells; read-out: cytotoxic activity IC50
Source text: as §2

[8] = in vitro; format: cell-based; conditions: human; SH-SY5Y cells; read-out: cytotoxic activity IC50
[9] = in vitro; format: cell-based; conditions: human; MDA-MB-231 cells; read-out: cytotoxic activity IC50
Source text: as §2

[10] = tested on: MRSA
Description: (§1) The antimicrobial activities of 1–6 against Bacillus cereus, Proteus species, Mycobacterium phlei, Bacillus subtilis, Vibrio parahemolyticus, Edwardsiella tarda, MRCNS, and MRSA were evaluated as previously reported by using the agar dilution method. […] All strains were donated by the Qingdao municipal hospital.

[11] = tested on: MRCNS
Description: as §1

[12] = tested on: Vibrio parahemolyticus; assay: Antimicrobial activity (MIC), agar dilution method; format: cell-based; conditions: performed in triplicates
Description: as §1

[13] = in vitro; format: cell-based; conditions: human; BEL-7402 cells; read-out: cytotoxic activity IC50
Source text: as §2

[14] = in vitro; format: cell-based; conditions: human; K562 cells; read-out: cytotoxic activity IC50
Source text: as §2

[15] = in vitro; format: cell-based; conditions: human; PC-3 cells; read-out: cytotoxic activity IC50
[16] = in vitro; format: cell-based; conditions: human; ASPC-1 cells; read-out: cytotoxic activity IC50
[17] = in vitro; format: cell-based; conditions: human; MGC-803 cells; read-out: cytotoxic activity IC50
Source text: as §2

[18] = tested on: Bacillus cereus; assay: microbe, parasite or virus in culture
Description: as §1

[19] = tested on: Mycobacterium phlei; assay: microbe, parasite or virus in culture
Description: as §1

[20] = tested on: Edwardsiella tarda; assay: microbe, parasite or virus in culture
Description: as §1

[21] = tested on: Bacillus subtilis; assay: microbe, parasite or virus in culture
Description: as §1

[22] = tested on: Proteus species; assay: organism not typed
Description: as §1

[23] = in vitro; format: cell-based; conditions: human; A549 cells; read-out: cytotoxic activity IC50
Source text: as §2

[24] = in vitro; format: cell-based; conditions: human; MCF-7 cells; read-out: cytotoxic activity IC50
Source text: as §2

[25] = dissolved in solvent mixture MeOH-H2O and exposed to air for two weeks; LC-MS
Source text: It is well-known that some artificial compounds are formed from natural compounds due to oxidation when exposed to air.

Structure (SMILES) | IC50 [1] [µM] | IC50 [2] [µM] | IC50 [3] [µM] | IC50 [4] [µM] | IC50 [5] [µM] | IC50 [6] [µM] | IC50 [7] [µM] | IC50 [8] [µM] | IC50 [9] [µM] | MIC, MRSA [10] [µM] | MIC, MRCNS [11] [µM] | MIC, V. parahemolyticus [12] [µM] | IC50 [13] [µM] | IC50 [14] [µM] | IC50 [15] [µM] | IC50 [16] [µM] | IC50 [17] [µM] | MIC, B. cereus [18] [µM] | MIC, M. phlei [19] [µM] | MIC, E. tarda [20] [µM] | also measured
CO[C@H](C)[C@@H](/C=C/C=C/C(=O)N(C)[C@H]1CCCN(C)C(=O)[C@H](C)N(C)C(=O)[C@H](C(C)C)N(C)C1=O)OC [Compound 3] | > 30 | > 30 | > 30 | > 30 | > 30 | > 30 | > 30 | > 30 | > 30 | >50.0 | >50.0 | 25.0 (≈ 13.1 µg/mL) | > 30 | > 30 | > 30 | > 30 | > 30 | >50.0 | >50.0 | 25.0 (≈ 13.1 µg/mL) | MIC, B. subtilis [21]: >50.0 µM; MIC, P. species [22]: >50.0 µM; IC50 [23]: > 30 µM; IC50 [24]: > 30 µM
CO[C@H](/C=C/C=C/C(=O)N[C@H]1CCCNC(=O)[C@H](C)N(C)C(=O)[C@H](C(C)C)N(C)C1=O)[C@@H](C)O [Compound 4, (2′E,4′E)-cyclo-[(NMe-L-Ala)-(NMe-L-Val)-(Nα-(6R,7R)-7-hydroxy-6-methoxyocta-2,4-dienoyl-L-Orn)]] | > 30 | > 30 | > 30 | > 30 | > 30 | > 30 | > 30 | > 30 | > 30 | >50.0 | >50.0 | 25.0 (≈ 12 µg/mL) | > 30 | > 30 | > 30 | > 30 | > 30 | 25.0 (≈ 12 µg/mL) | >50.0 | 25.0 (≈ 12 µg/mL) | MIC, B. subtilis [21]: >50.0 µM; MIC, P. species [22]: 25.0 µM (≈ 12 µg/mL); IC50 [23]: > 30 µM; IC50 [24]: > 30 µM
CC(C)[C@H]1C(=O)N(C)[C@@H](C)C(=O)NCCC[C@H](NC(=O)/C=C/C=C/C=O)C(=O)N1C [Compound 5, sclerotiotide F] | > 30 | > 30 | > 30 | > 30 | > 30 | > 30 | > 30 | > 30 | > 30 | >50.0 | >50.0 | 25.0 (≈ 10.5 µg/mL) | > 30 | > 30 | > 30 | > 30 | > 30 | 25.0 (≈ 10.5 µg/mL) | >50.0 | 25.0 (≈ 10.5 µg/mL) | MIC, B. subtilis [21]: >50.0 µM; MIC, P. species [22]: 25.0 µM (≈ 10.5 µg/mL); IC50 [23]: > 30 µM; IC50 [24]: > 30 µM
C/C=C/C=C/C=C/C(=O)N[C@H]1CCCNC(=O)[C@H](C)N(C)C(=O)[C@H](C(C)C)N(C)C1=O [Compound 6, sclerotiotide B] | > 30 | > 30 | > 30 | > 30 | > 30 | > 30 | > 30 | > 30 | > 30 | >50.0 | >50.0 | >50.0 | > 30 | > 30 | > 30 | > 30 | > 30 | >50.0 | >50.0 | >50.0 | chemical stability (products formed) [25]: compounds 4 and 5 were also detected from the product; MIC, B. subtilis [21]: >50.0 µM; MIC, P. species [22]: >50.0 µM; IC50 [23]: > 30 µM; IC50 [24]: > 30 µM
CC(C)[C@H]1C(=O)N(C)[C@@H](C)C(=O)NCCC[C@H](NC(=O)/C=C/C=C/C(=O)O)C(=O)N1C [Compound 1] | > 30 | > 30 | > 30 | > 30 | > 30 | > 30 | > 30 | > 30 | > 30 | 25.0 (≈ 10.9 µg/mL) | 12.5 (≈ 5.46 µg/mL) | 3.13 (≈ 1.37 µg/mL) | > 30 | > 30 | > 30 | > 30 | > 30 | 3.13 (≈ 1.37 µg/mL) | 3.13 (≈ 1.37 µg/mL) | 1.56 (≈ 0.681 µg/mL) | MIC, B. subtilis [21]: 6.25 µM (≈ 2.73 µg/mL); MIC, P. species [22]: 3.13 µM (≈ 1.37 µg/mL); IC50 [23]: > 30 µM; IC50 [24]: > 30 µM
COC(=O)/C=C/C=C/C(=O)N[C@H]1CCCNC(=O)[C@H](C)N(C)C(=O)[C@H](C(C)C)N(C)C1=O [Compound 2, (2′E,4′E)-cyclo-[(NMe-L-Ala)-(NMe-L-Val)-(Nα-6-methoxy-6-oxohexa-2,4-dienoyl-L-Orn)]] | > 30 | > 30 | > 30 | > 30 | > 30 | > 30 | > 30 | > 30 | > 30 | 25.0 (≈ 11.3 µg/mL) | 25.0 (≈ 11.3 µg/mL) | 6.25 (≈ 2.82 µg/mL) | > 30 | > 30 | > 30 | > 30 | > 30 | 6.25 (≈ 2.82 µg/mL) | 12.5 (≈ 5.63 µg/mL) | 1.56 (≈ 0.703 µg/mL) | MIC, B. subtilis [21]: 12.5 µM (≈ 5.63 µg/mL); MIC, P. species [22]: 6.25 µM (≈ 2.82 µg/mL); IC50 [23]: > 30 µM; IC50 [24]: > 30 µM
O=C(O)c1cn(C2CC2)c2cc(N3CCNCC3)c(F)cc2c1=O [CIP, Ciprofloxacin, reference compound] |  |  |  |  |  |  |  |  |  |  |  |  |  |  |  |  |  |  |  |  | MIC ([18]; Bacillus cereus, read-out: MIC, B. cereus): 0.78 µM (≈ 0.258 µg/mL); MIC ([19]; Mycolicibacterium phlei, read-out: MIC, M. phlei): 0.78 µM (≈ 0.258 µg/mL); MIC ([20]; Edwardsiella tarda, read-out: MIC, E. tarda): 0.0125 µM (≈ 0.00414 µg/mL); MIC ([21]; Bacillus subtilis, read-out: MIC, B. subtilis): 0.195 µM (≈ 0.0646 µg/mL); MIC ([22]; read-out: MIC, P. species): 0.195 µM (≈ 0.0646 µg/mL)
